Reference: paper PMC10616807, “3′-O-β-Glucosyl-4′,5′-didehydro-5′-deoxyadenosine Is a Natural Product of the Nucleocidin Producers Streptomyces virens and Streptomyces calvus” (Journal of Natural Products, 2023)

System: T1, NucGT
T1 construct: glucosyltransferase enzyme
Assay: HPLC product assay at […] nm, initial rates, Michaelis-Menten fit
Format: biochemical, Streptomyces calvus
Details: 17.7 mM UDP-glucose (saturating), 100 mM MgCl2, 50 mM Tris-HCl pH 7.8, 37 °C

Row | SMILES | Km [µM]
1 | Nc1ncnc2c1ncn2[C@@H]1O[C@H](CO)[C@@H](O)[C@H]1O [adenosine] | 487 ± 53
2 | C=C1O[C@@H](n2cnc3c(N)ncnc32)[C@H](O)[C@@H]1O [compound 12, 4′,5′-didehydro-5′-deoxyadenosine] | 365 ± 6
